Values of other authors, collected in patent US12673067B2, “Methods, agents, and devices for local neuromodulation of autonomic nerves” (Tulavi Therapeutics, Inc., priority 2016, dated 2026).

Assays:
[1] = target: T1, GPR120 (Homo sapiens, UniProt Q5NUL3)
T1 sequence (Q5NUL3 1-361): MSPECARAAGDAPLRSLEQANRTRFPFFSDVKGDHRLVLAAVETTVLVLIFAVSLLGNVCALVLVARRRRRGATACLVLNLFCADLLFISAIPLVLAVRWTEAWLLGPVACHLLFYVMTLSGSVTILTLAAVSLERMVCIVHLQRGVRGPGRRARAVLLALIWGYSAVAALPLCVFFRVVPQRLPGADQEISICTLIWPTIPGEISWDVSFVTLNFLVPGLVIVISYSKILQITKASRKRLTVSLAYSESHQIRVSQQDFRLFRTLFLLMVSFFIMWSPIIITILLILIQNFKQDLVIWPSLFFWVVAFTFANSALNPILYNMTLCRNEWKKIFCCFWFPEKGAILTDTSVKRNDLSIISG

[2] = target: GPR40 (Homo sapiens, UniProt O14842); conditions: at 100 μM
Chain of GPR40 (O14842 whole entry): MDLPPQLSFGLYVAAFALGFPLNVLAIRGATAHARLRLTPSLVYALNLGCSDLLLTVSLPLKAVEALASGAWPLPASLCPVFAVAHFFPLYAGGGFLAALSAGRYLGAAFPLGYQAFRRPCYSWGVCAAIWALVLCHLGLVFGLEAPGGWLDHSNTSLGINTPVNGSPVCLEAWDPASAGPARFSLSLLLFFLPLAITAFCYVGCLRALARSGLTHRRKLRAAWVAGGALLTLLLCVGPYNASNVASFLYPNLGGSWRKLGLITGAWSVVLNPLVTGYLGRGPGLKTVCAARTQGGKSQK

GPR120 agonism [1]: Weak GPR120 partial agonist
GPR40 activity [2]: without GPR40 activity
SMILES: CC(C)=CCC/C(C)=C/CC/C(C)=C/Cc1c(O)cc(C)c(C(=O)O)c1O [Grifolic acid]
